Where two headings read alike, the source gives them in different places.
Legend:
[1] = tested on: noxious ischaemia to the tail of Sprague-Dawley rats; assay: Nociception during noxious ischaemia of the rat tail (tourniquet, escape latency); type: in vivo; settings: median (95% confidence interval), n=10, cut-off 30 min
Method: Sprague-Dawley rats (Rattus norvegicus) both genders weighing 250-450 g were used for nociceptive tests. The rats were housed individually at an ambient temperature of 21-23° C. on a 12-hour light; 12-hour dark cycle, and were allowed free access to standard rat chow and tap water. Groups of ten rats were used for each test. Rats were returned to stock, and in good health, after the tests.
Ischaemia was induced by applying an inflatable tourniquet to the base of the restrained rat's tail, as detailed previously (Gelgor et al., 1992). […] The time between application of the tourniquet and the escape response, that is the escape latency, is a measure of sensitivity to the noxious stimulus induced by ischaemia. To prevent tissue damage, the tourniquet was removed if the rat had not responded within 30 min.
(§1) The tail flick latency (mean of three measurements, 1 min apart) was measured and then the agent under test was administered. Thirty minutes later the tourniquet (or sham tourniquet) was applied and the escape latency measured. Immediately after release of the tourniquet, the tail flick latency was again measured, and the measurements were repeated after 30 and 60 min of reperfusion. Following inspection of the data at all three periods of reperfusion, the investigations elected to base their assessment of antihyperalgesic activity on data obtained immediately after release of the tourniquet.
Paracetamol, meloxicam and codeine phosphate were provided by the applicant. Codeine phosphate was dissolved in water. Meloxicam was dissolved in sunflower oil. Paracetamol was suspended in sunflower oil. All three agents were administered in boluses of 0.2 ml, and the paracetamol suspension was flushed with water. In control experiments, the appropriate vehicle (water, sunflower oil, or both) was administered.
Each agent was administered separately, at three doses, to determine the antinociceptve activity, if any, of each independently. Pairs of agents then were administered at three doses for each pair. Finally, the combination of the three agents was administered, at three doses. […]

[2] = tested on: reperfusion hyperalgesia of the tail of Sprague-Dawley rats; assay: Reperfusion hyperalgesia of the rat tail following transient ischaemia (tail flick latency, antihyperalgesic index); type: in vivo; settings: for ED50: Rattus norvegicus, read-out: ED50 (dose at which reperfusion hyperalgesia is reduced by 50%), agent separately
Method: Sprague-Dawley rats (Rattus norvegicus) both genders weighing 250-450 g were used for nociceptive tests. The rats were housed individually at an ambient temperature of 21-23° C. on a 12-hour light; 12-hour dark cycle, and were allowed free access to standard rat chow and tap water. Groups of ten rats were used for each test.
The response of the rats to a noxious thermal stimulus was measured using a modified tail flick test, the details of which have previously been described (Gelgor et al., 1992). The rat's tail was submerged in a water bath controlled at 49° C., and the time to the first coordinated motor response of the tail measured, with a safety cut-off at 30 s. Tail skin temperature was maintained at 29° C. by placing all but the proximal 20 mm of the rat's tail in a temperature-controlled bath, before and between measurements, to obviate the potential confounding effects of changes in tail temperature on tail flick latency (Tjolsen et al., 1989).
The hyperalgesia which occurs during reperfusion of the tail following transient ischaemia, that is following the release of the tourniquet mentioned above, was measured by comparing the tail flick latency during reperfusion with that measured in the same animal before application of the tourniquet. Hyperalgesia is manifest as a reduced tail flick latency during reperfusion, and lasts about one hour (Gelgor et al., 1992).
as §1
Codeine phosphate was dissolved in water. Meloxicam was dissolved in sunflower oil. Paracetamol was suspended in sunflower oil. All three agents were administered in boluses of 0.2 ml, and the paracetamol suspension was flushed with water. In control experiments, the appropriate vehicle (water, sunflower oil, or both) was administered.
Each agent was administered separately, at three doses, to determine the antinociceptve activity, if any, of each independently. Pairs of agents then were administered at three doses for each pair. Finally, the combination of the three agents was administered, at three doses. In all cases, the ratio of the agents was fixed at 1 meloxicam: 4 codeine: 266 paracetamol.
Antihyperalgesia is measured by the extent to which an agent reverses the hyperalgesia induced by conditioning event, which, in the test case, was transient ischaemia. An antihyperalgesic index of zero means complete lack of antihyperalgesic activity, an index of 100% means full reversal of the hyperalgesia, and an index of more than 100% implies some analgesic activity added to the antihyperalgesic activity.

[3] = oral, single agent, least-squares regression, n=9 or 10, immediately after release of tourniquet

| Compound | Escape latency (min), Agent ([1]; codeine 20 mg/kg oral 30 min earlier) | ED50 ([2]; po) | Escape latency (min), Agent ([1]; paracetamol 266 mg/kg oral 30 min earlier) | ED50 [2, 3] | Antihyperalgesic activity of each agent administered separately, in words ([2]; oral, three doses each (FIG. 2), paracetamol limited to 266 mg/kg) | Antihyperalgesic activity of the agent on its own at its dose in the ED50 of the triple combination, in words ([2]; rat, in vivo) | Escape latency (min), Agent ([1]; meloxicam 5 mg/kg oral 30 min earlier) |
| --- | --- | --- | --- | --- | --- | --- | --- |
| COc1ccc2c3c1O[C@H]1[C@@H](O)C=C[C@H]4[C@@H](C2)N(C)CC[C@@]341 [Codeine, codeine phosphate] | 20.9 (11.9-30.0) min | 2.4 mg/kg | – | – | – | – | – |
| CC(=O)Nc1ccc(O)cc1 [Paracetamol, paracetamol] | – | – | 18.2 (9.2-30.0) min | > 266 mg/kg | did not exhibit any antihyperalgesic activity | no antihyperalgesic activity | – |
| Cc1cnc(NC(=O)C2=C(O)c3ccccc3S(=O)(=O)N2C)s1 [Meloxicam, meloxicam] | – | – | – | 2.6 mg/kg | – | – | 25.3 (15.7-30.0) min |

Reference: patent US20050090517A1, “Pharmaceutical combinations of cox-2 inhibitors and opiates” (priority 2002, published 2005)
